How the values were obtained:
[1] = system: penile erection in male Sprague-Dawley rats; test: Induction of penile erection in male rats; format: in vivo, rat; settings: for observed spontaneous erections compared to vehicle controls: rat model
systolic blood pressure = settings: rat, in vivo
From the text: In other studies, including comparisons of the same quantities of the cyclic peptide of Example 8.1 and bremelanotide by the same routes of administration, substantially similar results were obtained. […] In other studies, including comparisons of the same quantities of the cyclic peptide of Example 8.4 and bremelanotide by the same routes of administration, substantially similar results were obtained.

hMC4-R [2] = target: T1, hMC4-R (Homo sapiens, UniProt P32245); test: Assay for agonist activity (cAMP accumulation in HEK-293 cells expressing hMC4-R); format: cell-based
T1 construct: expressed in transfected cells; host or cells: HEK-293
Description: Accumulation of intracellular cAMP is examined as a measure of the ability of the cyclic peptides of the present invention to elicit a functional response in HEK-293 cells that express MC4-R. Confluent HEK-293 cells that express recombinant hMC4-R were detached from culture plates by incubation in enzyme-free cell dissociation buffer. Dispersed cells were suspended in Earle's Balanced Salt Solution containing 10 mM HEPES (pH 7.5), 1 mM MgCl2, 1 mM glutamine, 0.5% albumin and 0.3 mM 3-isobutyl-1-methyl-xanthine (IBMX), a phosphodiesterase inhibitor. The cells were plated in 96-well plates at a density of 0.5×10^5 cells per well and pre-incubated for 30 minutes. Cells were exposed for 1 hour at 37° C. to test cyclic peptides of the present invention dissolved in DMSO (final DMSO concentration of 1%) at a concentration range of 0.05-5000 nM in a total assay volume of 200 μL. NDP-α-MSH was used as the reference agonist. At the end of the incubation period, cells were disrupted by the addition of 50 μL of lysis buffer (cAMP EIA kit, Amersham) followed by vigorous pipetting. Levels of cAMP in the lysates were determined using a cAMP EIA kit (Amersham). Data analysis was performed by nonlinear regression analysis with Graph-Pad Prism® software. The maximum efficacies of the cyclic peptides of the present invention were compared to that achieved by the reference melanocortin agonist NDP-αMSH.

hMC4-R [3] = target: T1, hMC4-R; test: Competitive inhibition binding assay using NDP-α-MSH, MC4-R; settings: for Ki: competitive studies using NDP-α-MSH, human recombinant receptor, average of studies
Description: A competitive inhibition binding assay is performed using membrane homogenates prepared from HEK-293 cells that express recombinant hMC4-R, hMC3-R, or hMC5-R, and from B-16 mouse melanoma cells (containing endogenous MC1-R). In some instances, HEK-293 cells that express recombinant hMC1-R were employed. In the examples that follow, all MC3-R, MC4-R and MC5-R values are for human recombinant receptors. MC1-R values are for B-16 mouse melanoma cells, unless the heading is “hMC1-R”, in which case the value is for human recombinant MC1-R. Assays were performed in 96 well GF/B Millipore multiscreen filtration plates (MAFB NOB10) pre-coated with 0.5% bovine serum albumin (Fraction V). Membrane homogenates were incubated with 0.2 nM (for hMC4-R) 0.4 nM (for MC3-R and MC5-R) or 0.1 nM (for mouse B16 MC1-R or hMC1-R) [I^125]-NDP-α-MSH (Perkin Elmer) and increasing concentrations of cyclic peptides of the present invention in buffer containing 25 mM HEPES buffer (pH 7.5) with 100 mM NaCl, 2 mM CaCl2, 2 mM MgCl2, 0.3 mM 1,10-phenanthroline, and 0.2% bovine serum albumin. After incubation for 60 minutes at 37° C., the assay mixture was filtered and the membranes washed three times with ice-cold buffer. Filters were dried and counted in a gamma counter for bound radioactivity. […] Maximal specific binding (100%) was defined as the difference in radioactivity (cpm) bound to cell membranes in the absence and presence of 1 μM NDP-α-MSH. […] Ki values for cyclic peptides of the present invention were determined using Graph-Pad Prism® curve-fitting software. […]
Alternatively, a competitive inhibition binding assay was performed employing Eu-NDP-α-MSH (PerkinElmer Life Sciences catalog No. AD0225) with determination by time-resolved fluorometry (TRF) of the lanthanide chelate. […] The plates were incubated on a shaker for 15 minutes and read at 340 nm excitation and 615 nm emission wavelengths. […] Ki values were determined by curve-fitting with Graph-Pad Prism® software using a one-site fixed-slope competition binding model. […]

hMC5-R = target: T2, hMC5-R (Homo sapiens, UniProt P33032); test: Competitive inhibition binding assay using NDP-α-MSH, MC5-R; settings: competitive studies using NDP-α-MSH; human recombinant receptor
T2 construct: expressed in transfected cells; host or cells: HEK-293
Description: (§1) A competitive inhibition binding assay is performed using membrane homogenates prepared from HEK-293 cells that express recombinant hMC4-R, hMC3-R, or hMC5-R, and from B-16 mouse melanoma cells (containing endogenous MC1-R). In some instances, HEK-293 cells that express recombinant hMC1-R were employed. In the examples that follow, all MC3-R, MC4-R and MC5-R values are for human recombinant receptors. MC1-R values are for B-16 mouse melanoma cells, unless the heading is “hMC1-R”, in which case the value is for human recombinant MC1-R. Assays were performed in 96 well GF/B Millipore multiscreen filtration plates (MAFB NOB10) pre-coated with 0.5% bovine serum albumin (Fraction V). […] Filters were dried and counted in a gamma counter for bound radioactivity. […] Maximal specific binding (100%) was defined as the difference in radioactivity (cpm) bound to cell membranes in the absence and presence of 1 μM NDP-α-MSH. […] Ki values for cyclic peptides of the present invention were determined using Graph-Pad Prism® curve-fitting software. […]
(§2) Alternatively, a competitive inhibition binding assay was performed employing Eu-NDP-α-MSH (PerkinElmer Life Sciences catalog No. AD0225) with determination by time-resolved fluorometry (TRF) of the lanthanide chelate. […] The plates were incubated on a shaker for 15 minutes and read at 340 nm excitation and 615 nm emission wavelengths. […]

hMC3-R = target: T3, hMC3-R (Homo sapiens, UniProt P41968); test: Competitive inhibition binding assay using NDP-α-MSH, MC3-R; settings: competitive studies using NDP-α-MSH; human recombinant receptor
T3 construct: expressed in transfected cells; host or cells: HEK-293
Description: as §1, §2

[4] = target: T4, MC1-R (B-16 mouse melanoma cells) (Mus musculus, UniProt Q01727); test: Competitive inhibition binding assay using NDP-α-MSH, MC1-R; settings: competitive studies using NDP-α-MSH
T4 construct: from B-16 mouse melanoma cells (containing endogenous MC1-R); endogenous in cells; host or cells: B-16 mouse melanoma cells
Description: as §1

T1 sequence (P32245 whole entry): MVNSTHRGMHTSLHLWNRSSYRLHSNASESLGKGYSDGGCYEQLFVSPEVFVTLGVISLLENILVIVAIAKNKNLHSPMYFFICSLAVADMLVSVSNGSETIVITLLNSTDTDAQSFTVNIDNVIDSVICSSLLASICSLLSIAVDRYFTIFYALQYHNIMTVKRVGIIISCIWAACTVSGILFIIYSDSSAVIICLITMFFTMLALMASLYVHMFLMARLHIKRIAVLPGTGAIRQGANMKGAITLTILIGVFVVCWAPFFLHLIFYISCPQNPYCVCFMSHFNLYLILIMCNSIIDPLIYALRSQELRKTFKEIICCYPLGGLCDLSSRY
T4 sequence (Q01727 whole entry): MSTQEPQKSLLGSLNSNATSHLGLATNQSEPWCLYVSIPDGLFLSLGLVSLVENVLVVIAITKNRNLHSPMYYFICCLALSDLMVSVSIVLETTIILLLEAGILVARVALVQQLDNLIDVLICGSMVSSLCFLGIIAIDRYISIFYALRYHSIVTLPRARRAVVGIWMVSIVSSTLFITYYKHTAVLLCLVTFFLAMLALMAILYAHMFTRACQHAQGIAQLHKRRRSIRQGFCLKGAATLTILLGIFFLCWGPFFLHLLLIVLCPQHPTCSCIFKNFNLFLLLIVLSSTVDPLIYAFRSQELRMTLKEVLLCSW
T3 sequence (P41968 whole entry): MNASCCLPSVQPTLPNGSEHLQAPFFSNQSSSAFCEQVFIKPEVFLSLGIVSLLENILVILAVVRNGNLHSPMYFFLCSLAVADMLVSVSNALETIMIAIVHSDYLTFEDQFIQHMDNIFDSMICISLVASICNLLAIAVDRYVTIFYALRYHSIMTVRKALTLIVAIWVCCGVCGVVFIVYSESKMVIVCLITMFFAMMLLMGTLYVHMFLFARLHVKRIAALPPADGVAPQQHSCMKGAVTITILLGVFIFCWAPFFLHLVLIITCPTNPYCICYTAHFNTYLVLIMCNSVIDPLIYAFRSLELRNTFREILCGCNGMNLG
T2 sequence (P33032 whole entry): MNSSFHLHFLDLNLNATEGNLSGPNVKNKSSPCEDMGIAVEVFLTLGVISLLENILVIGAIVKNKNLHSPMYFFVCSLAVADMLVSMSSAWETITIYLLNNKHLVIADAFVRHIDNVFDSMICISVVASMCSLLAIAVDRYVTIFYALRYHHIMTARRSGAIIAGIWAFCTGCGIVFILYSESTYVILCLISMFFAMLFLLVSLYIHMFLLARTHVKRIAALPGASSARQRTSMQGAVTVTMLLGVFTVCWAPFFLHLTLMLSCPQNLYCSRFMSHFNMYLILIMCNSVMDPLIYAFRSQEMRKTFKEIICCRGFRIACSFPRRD

SMILES | penile erections per rat per hour compared to bremelanotide (companion studies) ([1]; 3.0 μmol/kg subcutaneous vs bremelanotide 1 μmol/kg IV) | observed spontaneous erections compared to vehicle controls ([1]; subcutaneous) | spontaneous erections per rat in one hour ([1]; subcutaneous, 0.3 mg/kg, n=7) | spontaneous erections per rat in one hour ([1]; subcutaneous, 1.0 mg/kg, n=7) | increase of systolic blood pressure compared to a dose of bremelanotide producing comparable penile erection results (systolic blood pressure) | functional status at MC4-R (hMC4-R [2]; functional studies) | receptor selectivity in binding (hMC4-R [3]; MC1-R, MC3-R, MC4-R and MC5-R binding compared) | Ki (hMC5-R) [nM] | Ki (hMC3-R) [nM] | Ki [4] [nM] | Ki (hMC4-R [3]) [nM] | penile erections per rat per hour compared to bremelanotide (companion studies) ([1]; 1 mg/kg subcutaneous vs bremelanotide 1 mg/kg IV) | Emax (hMC4-R [2]; HEK293, NDP-α-MSH is 100%, read-out: intrinsic activity at MC4-R) [%] | EC50 (hMC4-R [2]; functional studies, cAMP, average of studies, read-out: EC50 at MC4-R) [nM] | spontaneous erections per rat in one hour ([1]; IV, 1 mg/kg, n=7, positive control)
CC(=O)N[C@@H](CCCNC(=N)N)C(=O)N[C@H]1CC(=O)NCCCC[C@@H](C(N)=O)NC(=O)[C@H](Cc2c[nH]c3ccccc23)NC(=O)[C@H](CCCNC(=N)N)NC(=O)[C@@H](Cc2ccccc2)NC(=O)[C@H](CCN)NC1=O [Example 8.1, Ac-Arg-cyclo(Asp-Dab-D-Phe-Arg-Trp-Lys)-NH2] | same or higher penile erection results | statistically significant increase | 2.286±0.286 | 4.571±1.088 | less increase of systolic blood pressure | agonist | selective for MC4-R |  |  |  |  |  |  |  | 
CC(=O)N[C@@H](CCCNC(=N)N)C(=O)N[C@H]1CCC(=O)NCCC[C@@H](C(N)=O)NC(=O)[C@H](Cc2c[nH]c3ccccc23)NC(=O)[C@H](CCCNC(=N)N)NC(=O)[C@@H](Cc2ccccc2)NC(=O)[C@H](CCN)NC1=O [Example 8.3, Ac-Arg-cyclo(Glu-Dab-D-Phe-Arg-Trp-Orn)-NH2] |  |  |  |  |  | agonist |  | 300 | 74 | 1 | 0.65 |  |  |  | 
CC(=O)N[C@@H](CCCNC(=N)N)C(=O)N[C@H]1CCC(=O)NCCC[C@@H](C(=O)O)NC(=O)[C@H](Cc2c[nH]c3ccccc23)NC(=O)[C@H](CCCNC(=N)N)NC(=O)[C@@H](Cc2ccccc2)NC(=O)[C@H](CCN)NC1=O [Example 8.4, Ac-Arg-cyclo(Glu-Dab-D-Phe-Arg-Trp-Orn)-OH] |  | statistically significant increase | 2.571±0.685 | 5.286±0.918 | less increase of systolic blood pressure | agonist |  | 2370 | 410 | 4 | 8 | same or higher penile erection results | 91 | 3 | 
CCCC[C@H](NC(C)=O)C(=O)N[C@H]1CC(=O)NCCCC[C@@H](C(=O)O)NC(=O)[C@H](Cc2c[nH]c3ccccc23)NC(=O)[C@H](CCCN=C(N)N)NC(=O)[C@@H](Cc2ccccc2)NC(=O)[C@H](Cc2cnc[nH]2)NC1=O [bremelanotide, Ac-Nle-cyclo(Asp-His-D-Phe-Arg-Trp-Lys)-OH, reference compound] |  |  |  |  |  |  |  |  |  |  |  |  |  |  | 4±0.535

Source: patent US8729224B2, “Melanocortin receptor-specific peptides for treatment of female sexual dysfunction” (Palatin Technologies, Inc., priority 2008, dated 2014)
